Like-named read-outs stand apart in the source and are kept apart here.

The IC50 is the concentration at which inhibition is half-maximal.

One experiment concerns AsPC-1 cells. The experiment can be described thus: Non-anchorage-dependent cell growth inhibition (spheroid 3D culture), AsPC-1. It counts as cell-based. Particulars: Homo sapiens, ASPC1, 144 h, read-out: AsPC-1 IC50. The method, then: (§1) Test Example 3: Evaluation of Non-Anchorage-Dependent Cell Growth Inhibitory Activity on Human KRAS G12V Mutant-Positive Pancreatic Cancer Line PA-TU-8902, Human KRAS G12D Mutant-Positive Pancreatic Cancer Line AsPC-1 or Human KRAS G12C Mutant-Positive Pancreatic Cancer Line MIA PaCa-2
(§2) The non-anchorage-dependent cell growth inhibitory activities of subject compounds were evaluated by spheroid 3D cell culture.
(§3) PA-TU-8902 cells, AsPC-1 cells or MIA PaCa-2 cells (RIKEN BRC, RCB2094) were seeded at 36 µL/well on a low-cell-adhesive round bottom 384-well plate (Prime Surface: from Sumitomo Bakelite) to give 5×10^2 cells per well. The PA-TU-8902 cells were under the same conditions as in Test Example 1-1, and the AsPC-1 cells were under the same conditions as in Test Example 1-2. For the MIA PaCa-2 cells, RPMI-1640 medium containing 10% fetal bovine serum was used in the presence of 5% CO2 at 37° C.
(§4) The next day, the subject compounds (6-9 points having final concentrations in the range of 3 μM to 0.3 nM) and DMSO, which was the solvent for the subject compounds, as a negative control were diluted 100-fold with a fresh medium and were each added at 4 μL per well. After culturing in the presence of 5% CO2 at 37° C. for six days, CellTiter-Glo 2.0 (from Promega) was added at 20 μL per well. After stirring with a plate mixer (from FINEPCR) at normal temperature for an hour, the luminescent signals were measured with ARVO X3 (from PerkinElmer).
(§5) With the signaling value in treatment with DMSO taken as 0% inhibition and with the signaling value in the medium alone without cells taken as 100% inhibition, the 50% inhibition values (IC50) were calculated by Sigmoid-Emax model nonlinear regression analysis.

For a further experiment, the system named is PA-TU-8902 cells. The experiment in a line: Non-anchorage-dependent cell growth inhibition (spheroid 3D culture), PA-TU-8902. It counts as cell-based, human. To be noted: Homo sapiens, PaTu 8902, 144 h, read-out: PA-TU-8902 IC50. In short, it runs like this:
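Human pancreatic lines (PA-TU-8902 KRAS G12V, AsPC-1 G12D, MIA PaCa-2 G12C) grown as spheroids at 5×10^2 cells/well in low-adhesion round-bottom plates; MIA PaCa-2 in RPMI-1640 with 10% FBS. Compounds added next day (6-9 points, 3 μM to 0.3 nM final) for six days at 37 °C, 5% CO2. CellTiter-Glo luminescence, IC50 by Sigmoid-Emax regression versus DMSO and cell-free controls.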

The test system of the next experiment is MIA PaCa-2 cells. The experiment can be described thus: Non-anchorage-dependent cell growth inhibition (spheroid 3D culture), MIA PaCa-2. The format is cell-based. To be noted: Homo sapiens, MIA PaCa-2, 144 h, read-out: MIA PaCa-2 IC50. The method, then:
as §1, §2, §3, §4, §5

Experiment [1] has as its system phosphorylation of ERK (Thr202/Tyr204). The experiment can be described thus: ERK phosphorylation inhibitory activity, cell ELISA, PA-TU-8902. The format is cell-based. Particulars: Homo sapiens, read-out: IC50 (ERK phosphorylation inhibition). How it is done: Test Example 2: Evaluation of ERK Phosphorylation Inhibitory Activity on Human KRAS G12V Mutant-Positive Pancreatic Cancer Line PA-TU-8902
The ERK phosphorylation inhibitory activities of subject compounds were evaluated by measuring phosphorylation of the 202th threonine (Thr202) and the 204th tyrosine (Tyr204) of ERK located downstream of the KRAS signal by cell ELISA.
PA-TU-8902 cells were seeded at 36 µL/well on a 384-well plate (from Greiner bio-one) to give 5.0×10^3 cells per well. The cell culture conditions were the same conditions as in Test Example 1-1.
The next day, the subject compounds (9 points having final concentrations in the range of 3 μM to 0.3 nM), trametinib (MEK inhibitor) of a final concentration of 300 nM as a positive control and DMSO, which was the solvent for the subject compounds, as a negative control were diluted 100-fold with a fresh medium and were each added at 4 μL per well, followed by culturing for 24 hours. After culturing, a 30% glyoxal solution (40% glyoxal [from Nacalai Tesque] was diluted with PBS) was quickly added at 30 μL per well, and the plate was allowed to stand for an hour and 30 minutes at room temperature to thus immobilize the cells. Then, the plate was centrifuged (110×g, seven seconds, hereinafter centrifugation was performed under the same conditions unless otherwise specified) to remove the supernatant, and 0.1% Triton X-100-containing PBS was added at 20 μL per well. After allowing the plate to stand for 10 minutes at room temperature, the supernatant was removed by centrifugation, and the same operation was further repeated. Next, 0.5% SDS-containing PBS was added at 20 μL per well. The plate was allowed to stand at room temperature for 30 minutes and was then centrifuged to remove the supernatant. Subsequently, a blocking solution (Intercept Blocking Buffer) was added at 20 μL per well, and the plate was allowed to stand for an hour at room temperature. The supernatant was removed by centrifugation, and an ERK (Thr202/Tyr204) phosphorylation antibody (Phospho-p44/42 MAPK (Erk 1/2) (Thr202/Tyr204) (D13.14.4E) XP Rabbit mAb; from Cell Signaling Technology) diluted 2,500-fold with the blocking solution was added at 15 μL per well as a primary antibody. The plate was allowed to stand at 4° C. overnight.
The next day, the plate was centrifuged to remove the supernatant, and 0.05% Tween-20-containing PBS (from Thermo Scientific; 20×PBS Tween-20 was diluted 20-fold with ion exchange water and used) was added at 50 μL per well. The supernatant was removed by centrifugation to thus wash each well. The washing was performed three times in total. After washing, an anti-rabbit IgG antibody diluted 1,000-fold with the blocking solution was added at 15 μL per well as a secondary antibody, and the plate was allowed to stand for an hour at room temperature. The plate was centrifuged to remove the supernatant, and each well was washed three times with 0.05% Tween-20-containing PBS in the same manner as after the primary antibody reaction. Centrifugation after the third washing was performed at 171×g for 17 seconds. After removing the supernatant, the plate was dried as it was with air at room temperature for three hours or more, and the 800-nm fluorescent signals were measured with Aerius.
With the signaling value at the time of addition of DMSO taken as 0% inhibition and with the signaling value at the time of addition of 300 nM trametinib taken as 100% inhibition, the 50% inhibition values (IC50) were calculated by Sigmoid-Emax model nonlinear regression analysis.

Setting [2] is: KRAS G12D mutant-positive, 3D spheroid, six days, CellTiter-Glo 2.0.
[3] abbreviates: KRAS G12V mutant-positive, 3D spheroid, six days, CellTiter-Glo 2.0.
The mark [4] stands for this setting: KRAS G12C mutant-positive, 3D spheroid, six days, CellTiter-Glo 2.0.
[5] abbreviates: PaTu 8902, PA-TU-8902 cells, 24 hours, 100% = 300 nM trametinib.

For `CO[C@@H](C)COc1cc(OC2CN(C(=O)N3CC(CN(C)C)C3)C2)c2cc(C3CC3)c(-c3c(C)c(F)cc4[nH]ncc34)c(OCc3ccc(-c4cn([C@H](C(=O)N5C[C@H](O)C[C@H]5C(=O)N[C@@H](CO)c5ccc(-n6cncn6)cc5)C(C)C)nn4)cc3)c2n1` (atropisomer, axis not shown; (M)) [Example 5, (4R)-1-[(2S)-2-(4-{4-[({(7M)-6-cyclopropyl-4-[(1-{3-[(dimethylamino)methyl]azetidine-1-carbonyl}azetidin-3-yl)oxy]-7-(6-fluoro-5-methyl-1H-indazol-4-yl)-2-[(2S)-2-methoxypropoxy]quinolin-8-yl}oxy)methyl]phenyl}-1H-1,2,3-triazol-1-yl)-3-methylbutanoyl]-4-hydroxy-N-{(1R)-2-hydroxy-1-[4-(1H-1,2,4-triazol-1-yl)phenyl]ethyl}-L-prolinamide], the IC50 in the experiment with AsPC-1 cells (setting [2]) came out at 8 nM; in the experiment with PA-TU-8902 cells (setting [3]), 29 nM; with MIA PaCa-2 cells (setting [4]), 5 nM; in experiment [1] (setting [5]) it was 8 nM.

`CO[C@@H](C)COc1nc(NC2CN(C(=O)O[C@H]3C[C@@H](N(C)C)C3)C2)c2cc(C3CC3)c(-c3c(C)c(F)cc4[nH]ncc34)c(OCc3ccc(-c4cn([C@H](C(=O)N5C[C@H](O)C[C@H]5C(=O)N[C@@H](CO)c5ccc(-c6scnc6C)cc5)C(C)C)nn4)cc3)c2n1` (atropisomer, axis not shown; (M)) [Example 11, (1s,3R)-3-(dimethylamino)cyclobutyl 3-({(7M)-6-cyclopropyl-7-(6-fluoro-5-methyl-1H-indazol-4-yl)-8-{[4-(1-{(2S)-1-[(2S,4R)-4-hydroxy-2-({(1R)-2-hydroxy-1-[4-(4-methyl-1,3-thiazol-5-yl)phenyl]ethyl}carbamoyl)pyrrolidin-1-yl]-3-methyl-1-oxobutan-2-yl}-1H-1,2,3-triazol-4-yl)phenyl]methoxy}-2-[(2S)-2-methoxypropoxy]quinazolin-4-yl}amino)azetidine-1-carboxylate]: the IC50 in the experiment on AsPC-1 cells (setting [2]) is 11 nM; with PA-TU-8902 cells (setting [3]), 45 nM; with MIA PaCa-2 cells (setting [4]), 13 nM; in experiment [1] (setting [5]), 14 nM.

For the compound `CNCCNC(=O)N1CC(Oc2nc(OC[C@H](C)OC)nc3c(OCc4ccc(-c5cn([C@H](C(=O)N6C[C@H](O)C[C@H]6C(=O)N[C@@H](CO)c6ccc(-c7scnc7C)cc6)C(C)C)nn5)cc4)c(-c4c(C)c(F)cc5[nH]ncc45)c(C4CC4)cc23)C1` (atropisomer, axis not shown) [Example 18], the IC50 was determined as 32 nM in the experiment on AsPC-1 cells (setting [2]), 69 nM with PA-TU-8902 cells (setting [3]), 26 nM with MIA PaCa-2 cells (setting [4]) and 33 nM in experiment [1] (setting [5]).

`COC(C)(C)COc1cc(OC2CN(C(=O)N3CC(CN(C)C)C3)C2)c2cc(C3CC3)c(-c3c(C)c(F)cc4[nH]ncc34)c(OCc3ccc(-c4cn([C@H](C(=O)N5C[C@H](O)C[C@H]5C(=O)N[C@@H](CO)c5ccc(-n6cncn6)cc5)C(C)C)nn4)cc3)c2n1` (atropisomer, axis not shown) [Example 9]: the IC50 amounted to 19 nM with AsPC-1 cells (setting [2]), 53 nM in the experiment with PA-TU-8902 cells (setting [3]), 9 nM in the experiment with MIA PaCa-2 cells (setting [4]) and 12 nM in experiment [1] (setting [5]).

In the case of `CO[C@@H](C)COc1nc(N(C)[C@H]2CCN(C(=O)NCCN(C)C)C2)c2cc(C3CC3)c(-c3c(C)c(F)cc4[nH]ncc34)c(OCc3ccc(-c4cn([C@H](C(=O)N5C[C@H](O)C[C@H]5C(=O)N[C@@H](CO)c5ccc(-c6scnc6C)cc5)C(C)C)nn4)cc3)c2n1` (atropisomer, axis not shown) [Example 19], the IC50 with AsPC-1 cells (setting [2]) worked out at 16 nM; in the experiment with PA-TU-8902 cells (setting [3]), 58 nM; with MIA PaCa-2 cells (setting [4]), 27 nM; in experiment [1] (setting [5]), 31 nM.

Consider `CO[C@@H](C)COc1nc(OC2CN(C(=O)NCCN(C)C)C2)c2cc(C3CC3)c(-c3c(C)c(F)cc4[nH]ncc34)c(OCc3ccc(C(=O)N[C@H](C(=O)N4C[C@H](O)C[C@H]4C(=O)N[C@@H](CO)c4ccc(-c5scnc5C)cc4)C(C)C)cc3)c2n1` [Example 40, N-{4-[({(7M)-6-cyclopropyl-4-[(1-{[2-(dimethylamino)ethyl]carbamoyl}azetidin-3-yl)oxy]-7-(6-fluoro-5-methyl-1H-indazol-4-yl)-2-[(2S)-2-methoxypropoxy]quinazolin-8-yl}oxy)methyl]benzoyl}-L-valyl-(4R)-4-hydroxy-N-{(1R)-2-hydroxy-1-[4-(4-methyl-1,3-thiazol-5-yl)phenyl]ethyl}-L-prolinamide], for which the IC50 with AsPC-1 cells amounted to 62 nM; with PA-TU-8902 cells it was 100 nM; in the experiment on MIA PaCa-2 cells, 20 nM; in experiment [1] (PaTu 8902, 24 h), 53 nM.

Consider `CO[C@@H](C)COc1nc(NC2CN(C(=O)O[C@H]3C[C@@H](N(C)C)C3)C2)c2cc(C3CC3)c(-c3c(C)c(F)cc4[nH]ncc34)c(OCc3ccc(-c4cn([C@H](C(=O)N5C[C@H](O)C[C@H]5C(=O)N[C@@H](CO)c5ccc(-n6cncn6)cc5)C(C)C)nn4)cc3)c2n1` (atropisomer, axis not shown; (M)) [Example 2, (1s,3R)-3-(dimethylamino)cyclobutyl 3-({(7M)-6-cyclopropyl-7-(6-fluoro-5-methyl-1H-indazol-4-yl)-8-{[4-(1-{(2S)-1-[(2S,4R)-4-hydroxy-2({(1R)-2-hydroxy-1-[4-(1H-1,2,4-triazol-1-yl)phenyl]ethyl}carbamoyl)pyrrolidin-1-yl]-3-methyl-1-oxobutan-2-yl}-1H-1,2,3-triazol-4-yl)phenyl]methoxy}-2-[(2S)-2-methoxypropoxy]quinazolin-4-yl}amino)azetidine-1-carboxylate], for which the IC50 with AsPC-1 cells (setting [2]) is 11 nM; in the experiment with PA-TU-8902 cells (setting [3]), 33 nM; with MIA PaCa-2 cells (setting [4]) it was 12 nM; in experiment [1] (setting [5]) it was 16 nM.
